Literature values in patent publication US20220370511A1, “METHODS AND COMPOSITIONS FOR ENHANCING OVERALL HEALTH AND LONGEVITY IN MAMMALS” (MYOS CORP., priority 2019, published 2022).

Legend:
[1] = chronic supplementation, healthy middle-aged and older adults
NAD+ metabolism = conditions: chronic supplementation, healthy middle-aged and older adults
[2] = dose of 300 mg/kg/day

SMILES: NC(=O)c1ccc[n+]([C@@H]2O[C@H](CO)[C@@H](O)[C@H]2O)c1 [nicotinamide riboside]
- tolerability [1]: well tolerated
- stimulation of NAD+ metabolism (NAD+ metabolism): effectively stimulated
- adverse effects related to nicotinamide riboside [2]: absent
